For this experiment, the target named is Human TAAR 1 (Homo sapiens, UniProt Q96RJ0). Kind of experiment: cAMP Biotrak EIA functional assay in HEK293 cells stably expressing hTAAR1. In kind it is cell-based. The conditions noted are these: for Emax: HEK293, read-out: Max (maximal response as percentage of the maximal cAMP levels induced by p-TYR). Background: Cyclic AMP is a second messenger, typically raised through Gs and lowered through Gi signalling.

Where [1] appears, read: cAMP production in HEK293 cells stably expressing human TAAR 1 (chimera with rat TAAR 1 N-/C-terminus and 3rd intracellular loop, HA leader), means of at least three independent experiments.

Structures are written as SMILES. Where two headings read alike, the source gives them in different places.

This note sets out measurements from patent US20060009441A1, “Human trace amine associated receptors” (priority 2004, published 2006).

For orientation: EC50 means the concentration needed to bring the measured effect to its halfway point. Read a low EC50 as greater potency.

Human TAAR 1, sequence (Q96RJ0 with tags, fused parts or gaps): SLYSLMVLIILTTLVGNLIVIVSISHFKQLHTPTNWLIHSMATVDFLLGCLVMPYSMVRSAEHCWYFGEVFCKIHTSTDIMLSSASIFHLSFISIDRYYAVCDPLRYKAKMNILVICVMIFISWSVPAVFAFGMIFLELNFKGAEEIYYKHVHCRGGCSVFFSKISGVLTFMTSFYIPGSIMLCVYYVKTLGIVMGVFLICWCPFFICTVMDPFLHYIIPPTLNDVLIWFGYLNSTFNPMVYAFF
Human TAAR 1, sequence (Q923Y9 with tags, fused parts or gaps partner): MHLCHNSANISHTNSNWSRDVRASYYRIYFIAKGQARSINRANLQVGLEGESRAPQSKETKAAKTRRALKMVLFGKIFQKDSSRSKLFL

Turning to `CNCCc1ccccc1` [N-methyl-β-PEA], the “Max (maximal response as percentage of the maximal cAMP levels induced by p-TYR)” value is on record as 100%. In addition, the midpoint of the response under setting [1], the EC50, lay at 0.16 µM.
As for `NC[C@H](O)c1ccc(O)c(O)c1` [Norepinephrine, norepinephrine], the EC50 under setting [1] is over 50 µM.
`NCCc1ccc(O)c(O)c1` [Dopamine, dopamine]: the Emax came to 50%.
As for `NCCc1ccccc1` [β-PEA, β-phenylethylamine], the Emax was found to be 100%. Moreover, the EC50 under setting [1] came out at 0.3 µM.
For the molecule `NCCc1ccc(O)cc1` [p-TYR, p-tyramine], the EC50 was found to be 1.07 µM and the “Max (maximal response as percentage of the maximal cAMP levels induced by p-TYR)” value is 100%.
On to `NCCc1c[nH]c2ccc(O)cc12` [Serotonin, 5-HT, Serotonin], for which the EC50 under setting [1] is over 50 µM.
Still for that read-out and setting: then `NCCc1c[nH]cn1` [Histamine, histamine], with over 50 µM.
Regarding `NCCc1c[nH]c2ccccc12` [TRY, tryptamine], the Emax was found to be 100%. Moreover, under setting [1], the EC50 turned out to be 46.9 µM.
With `CNCCc1ccc(O)cc1` [N-methyl-p-tyramine], the “Max (maximal response as percentage of the maximal cAMP levels induced by p-TYR)” value was 100%. Under setting [1], this molecule gave an EC50 of 2.05 µM.
Turning to `NCC(O)c1ccc(O)cc1` (stereo not shown) [OCT, octopamine], the Emax was determined as 100%. This molecule also gave an EC50 under setting [1] of 10.3 µM.
